Source: article PMC11876007, “Design and Synthesis of Hydroxamate-Based Matrix Metalloproteinase-2 Inhibitors for Anti-Photoaging” (Journal of Microbiology and Biotechnology, 2025)
Several values for one entry are separate records, joined by “and”; a condition that tells them apart may be missing. Identical values can stand only once. Entries after “also recorded” stand apart in the source; their conditions may differ.

What was measured:
[1] = target: T1, MMP-2 (Homo sapiens, UniProt P08253); assay: In vitro MMP-2 inhibition assay (Abcam kit ab139446); type: biochemical; settings: for IC50: apparent IC50, concentration-dependent inhibition, Fig. 2B; for Selectivity of inhibition, MMP-2 over MMP-1 (in words): tested at 500 nM for MMP-1 and 50 nM for MMP-2; for MMP-2 inhibition (in words): 50 nM, Fig. 3A
T1 construct: purchased Abcam ab139446
T1 sequence (P08253 110-465 limits assumed): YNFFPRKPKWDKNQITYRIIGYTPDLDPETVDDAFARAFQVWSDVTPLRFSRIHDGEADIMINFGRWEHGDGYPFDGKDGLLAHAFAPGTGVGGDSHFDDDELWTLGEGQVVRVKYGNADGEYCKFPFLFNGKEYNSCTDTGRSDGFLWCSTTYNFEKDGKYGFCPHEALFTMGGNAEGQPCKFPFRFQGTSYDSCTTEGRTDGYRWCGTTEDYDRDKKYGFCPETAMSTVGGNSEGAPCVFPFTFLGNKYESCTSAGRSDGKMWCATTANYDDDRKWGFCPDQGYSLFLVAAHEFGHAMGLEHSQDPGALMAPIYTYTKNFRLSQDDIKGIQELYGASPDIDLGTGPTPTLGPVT
Experimental: (§1) Test inhibitors were incubated with MMP enzymes and assay buffer at 37 °C for 30 min. Enzyme reaction was initiated by adding substrate, and MMP activity was measured by monitoring optical density (OD) at 412 nm for 20 min at 1-min intervals. The residual activity (%) was calculated as: residual activity = (Vinhibitor/Vcontrol) × 100. The reaction velocity (V) in OD/min were determined by the slope of a line fit to the linear portion of the measured values.

[2] = target: T2, MMP-1 (Homo sapiens, UniProt P03956); assay: In vitro MMP-1 inhibition assay (Abcam kit ab139443); type: biochemical; settings: for MMP-1 inhibition (in words): 500 nM, Fig. 3A
T2 construct: purchased Abcam ab139443
T2 sequence (P03956 100-269 limits assumed): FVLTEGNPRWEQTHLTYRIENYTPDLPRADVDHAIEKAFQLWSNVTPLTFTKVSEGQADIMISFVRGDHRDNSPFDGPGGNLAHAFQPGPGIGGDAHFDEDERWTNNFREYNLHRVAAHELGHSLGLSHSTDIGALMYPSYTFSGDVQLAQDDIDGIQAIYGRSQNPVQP
Experimental: as §1

[3] = test system: NHF cells; assay: Gelatin degradation assay (fluorescent gelatin, NHF cells); type: cell-based, human; settings: 1 μM, four days, fluorescent-gelatin-coated plates
Experimental: Gelatin digestion was assessed using the QCM™ Gelatin Invadopodia Assay (#ECM670) (Sigma-Aldrich, USA). Plates were first coated with poly-L-lysine, activated with glutaraldehyde, and then coated with fluorescein-labelled gelatin. NHF cells were seeded onto the fluorescent gelatin-coated plates and incubated for 4 days. After incubation, the cells were fixed with formaldehyde and stained with DAPI for normalization based on cell number. Fluorescent gelatin levels were measured by detecting fluorescent intensity at an excitation wavelength of 492 nm and an emission wavelength of 518 nm using a Bio Tek Synergy H1 fluorescence reader (Agilent Technologies, USA). The residual gelatin (RG) was calculated by subtracting the fluorescent value of the wells with seeded cells from the values of wells without cells. This was normalized using the DAPI fluorescence to account for cell numbers per well. Gelatin degradation (%) was determined as: Gelatin degradation = (RGinhibitor/RGcontrol) × 100.

[4] = target: T3, MMP-9 (Homo sapiens, UniProt P14780); assay: Zymogram assay, MMP-9 in HaCaT cell conditioned media; type: biochemical; settings: keratinocyte-conditioned media; 50 nM developing phase and 500 nM 48 h, Fig. 4B and 4D
T3 construct: endogenous in cells; host or cells: HaCaT keratinocytes (conditioned medium)
T3 sequence (P14780 94-707): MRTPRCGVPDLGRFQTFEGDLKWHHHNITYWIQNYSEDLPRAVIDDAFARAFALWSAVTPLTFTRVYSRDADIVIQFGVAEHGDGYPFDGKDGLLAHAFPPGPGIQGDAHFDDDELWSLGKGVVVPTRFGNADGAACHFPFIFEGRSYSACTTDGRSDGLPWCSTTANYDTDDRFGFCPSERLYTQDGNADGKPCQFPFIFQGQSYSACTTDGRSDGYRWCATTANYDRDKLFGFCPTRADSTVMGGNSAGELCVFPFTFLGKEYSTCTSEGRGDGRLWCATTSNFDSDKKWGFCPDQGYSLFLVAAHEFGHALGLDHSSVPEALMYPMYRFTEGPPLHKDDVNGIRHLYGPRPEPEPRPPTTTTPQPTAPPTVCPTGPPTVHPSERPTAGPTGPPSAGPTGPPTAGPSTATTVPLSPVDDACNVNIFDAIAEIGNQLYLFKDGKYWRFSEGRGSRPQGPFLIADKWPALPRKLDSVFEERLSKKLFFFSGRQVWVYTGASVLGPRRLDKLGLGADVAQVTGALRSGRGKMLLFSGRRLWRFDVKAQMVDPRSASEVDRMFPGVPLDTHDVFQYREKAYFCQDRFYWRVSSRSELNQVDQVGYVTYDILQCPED

In the case of CCCCOc1ccc(S(=O)(=O)N2CCCC2C(=O)NO)cc1 (centres unmarked) [Compound 1v, 1-((4-butoxyphenyl)sulfonyl)-N-hydroxypyrrolidine-2-carboxamide], the IC50 [1] is reported as 32.6 nM and the “Selectivity of inhibition, MMP-2 over MMP-1 (in words)” value (from here on “Selectivity of inhibition”) [1] is reported as “selectively inhibited MMP-2 over MMP-1”.

With CC(C)C(NS(=O)(=O)c1ccc(-c2ccccc2)cc1)C(=O)NO (centres unmarked) [Compound 1b, 2-([1,1'-biphenyl]-4-sulfonamido)-N-hydroxy-3-methylbutanamide] the “MMP-1 inhibition (in words)” value [2] was “weak MMP-1 inhibition”, the IC50 ([2]; apparent IC50, concentration-dependent inhibition, Fig. 2B) was 188 nM and the IC50 [1] was 5.1 nM and < 10 nM. The “Selectivity of inhibition” value [1] was “selectively inhibited MMP-2 over MMP-1”.

With O=C(NO)C1CCCCN1S(=O)(=O)c1ccccc1 (centres unmarked) [Compound 1ac, N-hydroxy-1-(phenylsulfonyl)piperidine-2-carboxamide] the “MMP-1 inhibition (in words)” value [2] was “maintained MMP-1 inhibition”.

CCCCOc1ccc(S(=O)(=O)NC(C(=O)NO)C(C)C)cc1 (centres unmarked) [Compound 1d, 2-((4-butoxyphenyl)sulfonamido)-N-hydroxy-3-methylbutanamide] was tested, and the IC50 [1] was 8.1 nM and < 10 nM and the “Selectivity of inhibition” value [1] was “selectively inhibited MMP-2 over MMP-1; also recorded: strong selectivity for MMP-2”.

In the case of CCCCOc1ccc(S(=O)(=O)N2CCCCC2C(=O)NO)cc1 (centres unmarked) [Compound 1af, 1-((4-butoxyphenyl)sulfonyl)-N-hydroxypiperidine-2-carboxamide], the “Gelatin degradation per cell (in words)” value [3] is reported as “statistically significant reductions” and the “MMP-9 inhibition, zymogram (in words)” value [4] is reported as “effectively inhibited both MMP-2 and MMP-9”.

For Cc1ccc(S(=O)(=O)N2CCCCC2C(=O)NO)cc1 (centres unmarked) [Compound 1aj, N-hydroxy-1-tosylpiperidine-2-carboxamide], the “Selectivity of inhibition” value [1] was “selective inhibition of MMP-2”.

CCCCOc1ccc(S(=O)(=O)NC(Cc2ccccc2)C(=O)NO)cc1 (centres unmarked) [Compound 1p, 2-((4-butoxyphenyl)sulfonamido)-N-hydroxy-3-phenylpropanamide] was tested, and the “MMP-2 inhibition (in words)” value [1] was “lower inhibitory activity against MMP-2”.

CCCCOc1ccc(S(=O)(=O)NC(CC(C)C)C(=O)NO)cc1 (centres unmarked) [Compound 1j, 2-((4-butoxyphenyl)sulfonamido)-N-hydroxy-4-methylpentanamide] was tested, and the IC50 [1] was 7.8 nM and < 10 nM and the “Selectivity of inhibition” value [1] was “selectively inhibited MMP-2 over MMP-1; also recorded: strong selectivity for MMP-2”.

With O=C(NO)C1CCCN1S(=O)(=O)c1ccc(-c2ccccc2)cc1 (centres unmarked) [Compound 1t, 1-([1,1'-biphenyl]-4-ylsulfonyl)-N-hydroxypyrrolidine-2-carboxamide] the “MMP-1 inhibition (in words)” value [2] was “weaker MMP-1 inhibition”, the IC50 [1] was 18.9 nM and the “Selectivity of inhibition” value [1] was “selectively inhibited MMP-2 over MMP-1”.

O=C(NO)C1CCCCN1S(=O)(=O)c1ccc(-c2ccccc2)cc1 (centres unmarked) [Compound 1ad, 1-([1,1'-biphenyl]-4-ylsulfonyl)-N-hydroxypiperidine-2-carboxamide] was tested, and the “Gelatin degradation per cell (in words)” value [3] was “statistically significant reductions” and the “MMP-9 inhibition, zymogram (in words)” value [4] was “effectively inhibited both MMP-2 and MMP-9”.

With O=C(NO)C(Cc1ccccc1)NS(=O)(=O)c1ccc(-c2ccccc2)cc1 (centres unmarked) [Compound 1n, 2-([1,1'-biphenyl]-4-sulfonamido)-N-hydroxy-3-phenylpropanamide] the “MMP-2 inhibition (in words)” value [1] was “lower inhibitory activity against MMP-2”.

For CC(=NO)c1ccc(S(=O)(=O)N2CCCCC2C(=O)NO)cc1 (centres unmarked) [Compound 4an, N-hydroxy-1-((4-(1-(hydroxyimino)ethyl)phenyl)sulfonyl)piperidine-2-carboxamide], the “Gelatin degradation per cell (in words)” value [3] was “statistically significant reductions” and the “MMP-9 inhibition, zymogram (in words)” value [4] was “effectively inhibited both MMP-2 and MMP-9”.
